Reference: paper PMC10067956, “Pyrazole derivatives of pyridine and naphthyridine as proapoptotic agents in cervical and breast cancer cells” (Scientific Reports, 2023)
Where two headings read alike, the source gives them in different places.

Experiments:
[1] = tested on: HeLa cells; assay: MTT cell viability assay, HeLa; type: cell-based; conditions: 24 h; for inhibition at 100 µM: read-out: %Inhibition at 100 µM, HeLa cell line; for IC50: read-out: IC50 (µM) ± SEM, HeLa Cell Line
Description: (§1) The anti-proliferative activity of the studied compounds was determined against breast (MCF-7) and cervical (HeLa) cancer cells by the MTT cell viability assay as described earlier[44],[45]. BHK-21 cells were used as non-cancerous cells to study the effect of these compounds on normal cells. Briefly, 1 × 10^4 cells/well were seeded in 96-well microtiter plate and placed in an incubator (Heracell™ VIOS 160i, Thermo-Fisher Scientific) set for 5% CO2 at 37 °C. The stock solutions of compounds were prepared at 10 mM concentration in DMSO. Initial working solutions were prepared in cell culture medium at 1 mM concentration. […] After 24 h, medium in each well was aspirated and cells were treated for 4 h with serum free medium containing 0.2 mg/mL MTT reagent. The solubilizing reagent (10% acidified sodium dodecyl sulfate in propanol in a 1:1 ratio) was added to solubilize formazan crystals. Plates were kept at 37 °C for 30 min and then placed on a gyratory shaker for few min for complete solubilization of formazan crystals. The optical density was measured at 570 nm by microplate reader and IC50 values were calculated from three independent experiments as previously reported.

[2] = tested on: MCF-7 cells; assay: MTT cell viability assay, MCF-7; type: cell-based; conditions: for inhibition at 100 µM: MCF7, 100 µM, read-out: %Inhibition at 100 µM, MCF-7 cell line; for IC50: read-out: IC50 (µM) ± SEM, MCF-7 cell line
Description: as §1

[3] = tested on: BHK-21 cells; assay: MTT cell viability assay, non-cancerous BHK-21; type: cell-based, Baby Hamster; conditions: 24 h, read-out: IC50 (µM) ± SEM, BHK-21 cell line
Description: as §1

[4] = tested on: HeLa cells; assay: Alkaline comet assay; type: cell-based; conditions: 5j 6.4 µM 24 h
Description: Comet assay is a sensitive method to determine DNA damage which was performed after some modifications in a published protocol. […] The cervical cancer (HeLa) cells were treated with IC50 value of potent compound 5j for 24 h. Cells were harvested, collected and centrifuged to obtain a pellet. Pelleted cells were re-suspended in media. Untreated cells were used as control cells. For the positive control, 2 × 10^4 cells were treated with 20 µM of freshly prepared hydrogen peroxide for 30 min. Slides were prepared by coating with 1% normal melting point agarose (NMPA) on one side and then dried. Samples (2 × 10^4 cells/sample) were re-suspended in 1 mL of PBS. In a tube, 0.4 mL cell suspension was mixed with 1.2 mL of 0.9% low melting point agarose (LMPA) and mixed thoroughly by pipetting. A cell suspension of 65 µL was laid on coated slide and evenly distributed by placing a coverslip over it. Slides were placed at − 20 °C for 10 min. Then the slides were placed at 4 °C in the dark in a lysis buffer of 100 mM EDTA, 10 mM Trizma base, 2.5 M sodium chloride, 10% DMSO and 1% Triton X-100 in distilled water with a pH of 10. After an overnight incubation, slides were washed with chilled distilled water. These slides were then placed in electrophoresis chamber (Wealtec, USA) having chilled (4 °C) alkali unwinding solution (300 mM sodium hydroxide and 1 mM EDTA in distilled water). Electrophoresis was carried out at an adjusted voltage (between 0.7 and 1.0 V/cm) for 35 min in an electrophoresis tank. Slides were then immersed in neutralization solution (0.4 M Trizma base in 800 mL water, pH 7.5) for 10 min in dark. Propidium iodide (20 µL of 0.01 mg/mL) was used as fluorescent dye to stain DNA. Slides were placed in dark at room temperature. After 10 min, images were captured using a fluorescence microscope (Nikon ECLIPSE Ni–U, Japan) at an excitation/emission wavelength of 493/632 nm. Microscopic images were analyzed using ImageJ (ij152-win-java8, National Institutes of Health, Bethesda, USA) and OpenComet (OpenComet_imagej_v1.3.1, USA) where the DNA content in the head and tail of the comets were automatically measured by the software. Results of three independent experiments were expressed as tail length ([…]), %DNA in comet tail and comet tail moment.

IC50 ([1]; Homo sapiens) [µM]	Structure (SMILES)	inhibition at 100 µM ([1]; Homo sapiens) [%]	inhibition at 100 µM ([2]; Homo sapiens, 24 h) [%]	IC50 ([3]; Mesocricetus auratus) [µM]	other results
–	N#CC1=C(N)Nc2n[nH]cc2C12C(=O)Nc1ccccc12 (centres unmarked) [4a]	34.5	28.2	–	–
–	Cc1ccc2c(c1)C1(C(=O)N2)C(C#N)=C(N)Nc2n[nH]cc21 (centres unmarked) [4b]	45.9	1.86	–	–
90.2 ± 2.18	N#CC1=C(N)Nc2n[nH]cc2C12C(=O)Nc1ccc(F)cc12 (centres unmarked) [4c]	> 50	26.8	49.2 ± 2.01	%Inhibition at 100 µM, HeLa cell line [1]: 57.80%
51.6 ± 0.99	N#CC1=C(N)Nc2n[nH]cc2C12C(=O)Nc1ccc(Cl)cc12 (centres unmarked) [4d]	–	18.9	246 ± 6.71	%Inhibition at 100 µM, HeLa cell line [1]: 99.45%
–	N#CC1=C(N)Nc2n[nH]cc2C12C(=O)Nc1ccc(Br)cc12 (centres unmarked) [4e]	24.9	7.24	–	–
–	N#CC1=C(N)Nc2n[nH]cc2C12C(=O)Nc1ccc([N+](=O)[O-])cc12 (centres unmarked) [4f]	26.2	5.23	–	–
–	N#CC1=C(N)Nc2n[nH]cc2C12C(=O)Nc1ccc(OC(F)(F)F)cc12 (centres unmarked) [4g]	38.6	15.2	–	–
–	Cc1[nH]nc2c1C1(C(=O)Nc3ccccc31)C(C#N)=C(N)N2 (centres unmarked) [4h]	5.08	2.38	–	–
–	Cc1ccc2c(c1)C1(C(=O)N2)C(C#N)=C(N)Nc2n[nH]c(C)c21 (centres unmarked) [4i]	39.7	1.42	–	–
–	Cc1[nH]nc2c1C1(C(=O)Nc3ccc(F)cc31)C(C#N)=C(N)N2 (centres unmarked) [4j]	5.68	2.22	–	–
–	Cc1[nH]nc2c1C1(C(=O)Nc3ccc(Cl)cc31)C(C#N)=C(N)N2 (centres unmarked) [4k]	3.84	11.9	–	–
–	Cc1[nH]nc2c1C1(C(=O)Nc3ccc(Br)cc31)C(C#N)=C(N)N2 (centres unmarked) [4l]	39.3	1.78	–	–
–	Cc1[nH]nc2c1C1(C(=O)Nc3ccc([N+](=O)[O-])cc31)C(C#N)=C(N)N2 (centres unmarked) [4m]	22.7	23.3	–	–
–	Cc1[nH]nc2c1C1(C(=O)Nc3ccc(OC(F)(F)F)cc31)C(C#N)=C(N)N2 (centres unmarked) [4n]	27.8	0.15	–	–
58.91 ± 0.39	Nc1nc2ccccc2c2c1c(N)nc1n[nH]cc12 [5a]	97.9	46.4	177 ± 6.11	–
32.1 ± 1.14	Cc1ccc2nc(N)c3c(N)nc4n[nH]cc4c3c2c1 [5b]	98.4	96.4	126 ± 1.63	IC50 ([2]; Homo sapiens, MCF7, 24 h): 41.4 ± 0.47 µM
10.3 ± 0.51	Nc1nc2ccc(F)cc2c2c1c(N)nc1n[nH]cc12 [5c]	69.2	4.12	42.4 ± 1.95	–
40.7 ± 1.42	Nc1nc2ccc(Cl)cc2c2c1c(N)nc1n[nH]cc12 [5d]	71.4	27.3	166.8 ± 0.95	–
30.2 ± 1.15	Nc1nc2ccc(Br)cc2c2c1c(N)nc1n[nH]cc12 [5e]	98.3	96.8	84.1 ± 3.31	IC50 ([2]; Homo sapiens, MCF7, 24 h): 18.6 ± 0.29 µM
69.1 ± 0.99	Nc1nc2ccc([N+](=O)[O-])cc2c2c1c(N)nc1n[nH]cc12 [5f]	–	9.54	101 ± 2.61	–
–	Nc1nc2ccc(OC(F)(F)F)cc2c2c1c(N)nc1n[nH]cc12 [5g]	61.3	31.4	–	–
14.4 ± 1.21	Cc1[nH]nc2nc(N)c3c(N)nc4ccccc4c3c12 [5h]	93.6	37.8	31.4 ± 1.33	–
61.9 ± 1.76	Cc1ccc2nc(N)c3c(N)nc4n[nH]c(C)c4c3c2c1 [5i]	63.5	58.2	134 ± 1.71	IC50 ([2]; Homo sapiens, MCF7, 24 h): 54.7 ± 0.63 µM
38.5 ± 0.63	Cc1[nH]nc2nc(N)c3c(N)nc4ccc(Br)cc4c3c12 [5l]	81.6	28.2	152 ± 2.61	–
–	Cc1[nH]nc2nc(N)c3c(N)nc4ccc([N+](=O)[O-])cc4c3c12 [5m]	44.9	10.3	–	–
32.7 ± 2.16	Cc1[nH]nc2nc(N)c3c(N)nc4ccc(OC(F)(F)F)cc4c3c12 [5n]	63.2	10.5	46.6 ± 1.03	–
–	N.N.[Cl][Pt][Cl] [Cisplatin, reference compound]	–	–	–	%Inhibition at 100 µM, HeLa cell line [1]: 98.63%; IC50 [1]: 11.3 ± 0.78 µM; %Inhibition at 100 µM, MCF-7 cell line ([2]; 100 µM, 24 h): 73.12%; IC50 ([2]; 24 h): 6.22 ± 0.72 µM; IC50 [3]: 24.7 ± 0.37 µM
–	OO [H2O2, Hydrogen Peroxide, reference compound]	–	–	–	%DNA in tail ± SD [4]: 55.11 ± 0.68%; Tail length ± SD ([4]; H2O2 20 µM 30 min (positive control)): 84.14 ± 3.43 µM
